Test results: ChEMBL document CHEMBL5634118, “Inhibition of Son of Sevenless Homologue 1 (SOS1): Promising therapeutic treatment for KRAS-mutant cancers” (Eur J Med Chem, 2023)
pIC50, pKi: −log10 of the molar value.

Legend:
K562 = assay: cells; conditions: Homo sapiens, K562, 72 h
[1] = Intrinsic clearance in mouse liver microsomes; type: ADME, Microsome; conditions: read-out: CLH
MIA PaCa-2 [2] = assay: Antiproliferative activity against human MIA PaCa-2 cells assessed as reduction in cell growth measured after 48 hrs by MTT assay; type: functional, cell-based; conditions: MIA PaCa-2, 48 h
[3] = Half life in mouse; type: ADME, organism-based; conditions: in vivo
[4] = biological target: T1, Son of sevenless homolog 1 (Homo sapiens, UniProt Q07889); assay: Inhibition of SOS1 in human Calu-1 cells assessed as reduction in pERK level incubated for 24 hrs by HTRF analysis; type: cell-based
T1 sequence (Q07889 whole entry): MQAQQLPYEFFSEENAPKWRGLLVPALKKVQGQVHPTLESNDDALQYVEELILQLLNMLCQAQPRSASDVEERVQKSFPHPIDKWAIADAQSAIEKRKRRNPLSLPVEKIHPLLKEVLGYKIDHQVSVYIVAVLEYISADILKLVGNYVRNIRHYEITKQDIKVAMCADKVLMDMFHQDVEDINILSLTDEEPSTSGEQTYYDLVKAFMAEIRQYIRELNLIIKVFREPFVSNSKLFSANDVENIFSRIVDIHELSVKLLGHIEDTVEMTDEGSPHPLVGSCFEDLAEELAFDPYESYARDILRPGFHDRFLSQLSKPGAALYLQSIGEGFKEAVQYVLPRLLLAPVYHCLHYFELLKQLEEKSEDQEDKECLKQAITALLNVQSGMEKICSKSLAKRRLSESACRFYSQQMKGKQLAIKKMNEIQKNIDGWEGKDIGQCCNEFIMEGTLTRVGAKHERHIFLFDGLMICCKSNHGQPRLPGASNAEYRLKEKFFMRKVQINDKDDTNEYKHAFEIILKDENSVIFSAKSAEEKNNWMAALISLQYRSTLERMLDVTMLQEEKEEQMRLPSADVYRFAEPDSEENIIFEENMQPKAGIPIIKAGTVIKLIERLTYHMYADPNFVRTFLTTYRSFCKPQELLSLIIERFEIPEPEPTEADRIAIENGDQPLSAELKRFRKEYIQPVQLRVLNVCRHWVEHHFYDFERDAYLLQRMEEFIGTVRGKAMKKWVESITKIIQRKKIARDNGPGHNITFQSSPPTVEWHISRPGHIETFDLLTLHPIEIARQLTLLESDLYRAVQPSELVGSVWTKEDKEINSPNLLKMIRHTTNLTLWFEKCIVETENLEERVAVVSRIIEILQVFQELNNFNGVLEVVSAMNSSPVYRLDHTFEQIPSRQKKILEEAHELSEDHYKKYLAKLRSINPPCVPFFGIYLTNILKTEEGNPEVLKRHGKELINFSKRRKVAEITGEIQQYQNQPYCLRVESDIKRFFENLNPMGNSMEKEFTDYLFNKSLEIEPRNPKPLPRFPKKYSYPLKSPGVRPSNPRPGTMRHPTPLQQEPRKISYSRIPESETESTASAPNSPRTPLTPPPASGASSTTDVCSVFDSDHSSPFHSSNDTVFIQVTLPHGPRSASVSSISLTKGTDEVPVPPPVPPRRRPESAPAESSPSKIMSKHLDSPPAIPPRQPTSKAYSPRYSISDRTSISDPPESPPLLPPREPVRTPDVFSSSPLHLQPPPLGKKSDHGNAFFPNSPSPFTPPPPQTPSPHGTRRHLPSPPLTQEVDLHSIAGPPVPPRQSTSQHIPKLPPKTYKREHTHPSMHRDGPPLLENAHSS

MIA PaCa-2 [5] = assay: Antitumor activity against human MIA PaCa-2 cells xenografted in mouse model assessed as tumor growth inhibition at 50 mg/kg, po relative to control; type: functional; conditions: read-out: TGI
[6] = AUC in mouse at 10 mg/kg, ip by LC-MS analysis; type: ADME, organism-based; conditions: in vivo
[7] = biological target: von Hippel-Lindau disease tumor suppressor/Son of sevenless homolog 1 (Homo sapiens, UniProt Q07889+P40337, G12V); assay: PROTAC activity at VHL/SOS1 in human NCI-H358 cells harboring KRAS G12V mutant assessed as induction of SOS1 degradation incubated for 24 hrs by immunoblotting analysis; type: cell-based
NCI-H358 [8] = assay: Antitumor activity against human NCI-H358 cells harboring KRAS G12V mutant xenografted in mouse model assessed as tumor growth inhibition at 10 mg/kg, ip administered once daily for 3 weeks relative to control; type: functional; conditions: NCI-H358, 504 h, read-out: TGI
[9] = biological target: von Hippel-Lindau disease tumor suppressor/Son of sevenless homolog 1 (Homo sapiens, UniProt Q07889+P40337, G12C); assay: PROTAC activity at VHL/SOS1 in human NCI-H358 cells harboring KRAS G12C mutant assessed as induction of SOS1 degradation incubated for 24 hrs by immunoblotting analysis; type: cell-based
[10] = biological target: von Hippel-Lindau disease tumor suppressor/Son of sevenless homolog 1 (Homo sapiens, UniProt Q07889+P40337, G12R); assay: PROTAC activity at VHL/SOS1 in human NCI-H358 cells harboring KRAS G12R mutant assessed as induction of SOS1 degradation incubated for 24 hrs by immunoblotting analysis; type: cell-based
[11] = biological target: von Hippel-Lindau disease tumor suppressor/Son of sevenless homolog 1 (Homo sapiens, UniProt Q07889+P40337, G12S); assay: PROTAC activity at VHL/SOS1 in human NCI-H358 cells harboring KRAS G12S mutant assessed as induction of SOS1 degradation incubated for 24 hrs by immunoblotting analysis; type: cell-based
NCI-H460 = assay: Antiproliferative activity against human NCI-H460 cells harboring KRAS […] mutant assessed as inhibition of cell proliferation incubated for 7 days by CellTiterGlo-3D proliferation assay; type: functional, cell-based; conditions: NCI-H460, 168 h
NCI-H358 [12] = assay: Antitumor activity against human NCI-H358 cells harboring KRAS […] mutant xenografted in mouse model assessed as tumor growth inhibition at 10 mg/kg, ip administered once daily for 3 weeks relative to control; type: functional; conditions: NCI-H358, 504 h, read-out: TGI
[13] = Half life in mouse at 10 mg/kg, ip by LC-MS analysis; type: ADME, organism-based; conditions: in vivo
[14] = biological target: von Hippel-Lindau disease tumor suppressor/Son of sevenless homolog 1 (Homo sapiens, UniProt Q07889+P40337, G12D); assay: PROTAC activity at VHL/SOS1 in human NCI-H358 cells harboring KRAS […] mutant assessed as induction of SOS1 degradation incubated for 24 hrs by immunoblotting analysis; type: cell-based
CAL-62 = assay: Antiproliferative activity against human CAL-62 cells harboring KRAS G12R mutant assessed as inhibition of cell proliferation incubated for 7 days by CellTiterGlo-3D proliferation assay; type: functional, cell-based; conditions: CAL-62, 168 h
[15] = biological target: von Hippel-Lindau disease tumor suppressor/Son of sevenless homolog 1 (Homo sapiens, UniProt Q07889+P40337, G13D); assay: PROTAC activity at VHL/SOS1 in human NCI-H358 cells harboring KRAS G13D mutant assessed as induction of SOS1 degradation incubated for 24 hrs by immunoblotting analysis; type: cell-based
[16] = biological target: von Hippel-Lindau disease tumor suppressor/Son of sevenless homolog 1 (Homo sapiens, UniProt Q07889+P40337); assay: PROTAC activity at VHL/SOS1 in human NCI-H358 cells assessed as induction of SOS1 protein degradation incubated for 24 hrs by Immunoblot analysis; type: cell-based
[17] = Clearance in CD-1 mouse at 5 mg/kg, ip measured after 24 hrs by LC-MS/MS analysis; type: ADME, organism-based; conditions: in vivo
[18] = Volume of distribution at steady state in CD-1 mouse at 5 mg/kg, ip measured after 24 hrs by LC-MS/MS analysis; type: ADME, organism-based; conditions: in vivo
[19] = biological target: T1, Son of sevenless homolog 1; assay: Binding affinity to SOS1 (unknown origin) assessed as inhibition constant by HTRF method
[20] = Oral bioavailability in CD-1 mouse at 20 mg/kg measured upto 24 hrs by LC/MS/MS analysis; type: ADME, organism-based; conditions: in vivo
MIA PaCa-2 [21] = assay: Antitumor activity against human MIA PaCa-2 cells xenografted in CD-1 mouse assessed as in tumor growth inhibition at 20 mg/kg, po BID for 22 days relative to control; type: functional; conditions: MIA PaCa-2, 528 h, time 22 day, read-out: TGI
MIA PaCa-2 [22] = assay: Antitumor activity against human MIA PaCa-2 cells xenografted in CD-1 mouse assessed as tumor inhibition at 20 mg/kg, po BID for 22 days relative to control; type: functional; conditions: MIA PaCa-2, 528 h, time 22 day, read-out: TGI
[23] = Half life in CD-1 mouse at 20 mg/kg, po measured after 24 hrs by LC-MS/MS analysis; type: ADME, organism-based; conditions: in vivo
[24] = biological target: T1, Son of sevenless homolog 1; assay: Inhibition of SOS1 (unknown origin) by HTRF assay
MIA PaCa-2 [25] = assay: Antiproliferative activity against human MIA PaCa-2 cells harboring KRAS G12C mutant assessed as reduction in cell viability incubated for 72 hrs by MTT assay; type: functional, cell-based; conditions: MIA PaCa-2, 72 h
MIA PaCa-2 [26] = assay: Antitumor activity against human MIA PaCa-2 cells xenografted in CD-1 mouse assessed as tumor growth inhibition at 20 mg/kg BID for 22 days relative to control; type: functional; conditions: MIA PaCa-2, 528 h, time 22 day, read-out: TGI
[27] = biological target: Epidermal growth factor receptor (Homo sapiens, UniProt P00533); assay: Inhibition of EGFR (unknown origin)
Epidermal growth factor receptor, sequence (P00533 whole entry): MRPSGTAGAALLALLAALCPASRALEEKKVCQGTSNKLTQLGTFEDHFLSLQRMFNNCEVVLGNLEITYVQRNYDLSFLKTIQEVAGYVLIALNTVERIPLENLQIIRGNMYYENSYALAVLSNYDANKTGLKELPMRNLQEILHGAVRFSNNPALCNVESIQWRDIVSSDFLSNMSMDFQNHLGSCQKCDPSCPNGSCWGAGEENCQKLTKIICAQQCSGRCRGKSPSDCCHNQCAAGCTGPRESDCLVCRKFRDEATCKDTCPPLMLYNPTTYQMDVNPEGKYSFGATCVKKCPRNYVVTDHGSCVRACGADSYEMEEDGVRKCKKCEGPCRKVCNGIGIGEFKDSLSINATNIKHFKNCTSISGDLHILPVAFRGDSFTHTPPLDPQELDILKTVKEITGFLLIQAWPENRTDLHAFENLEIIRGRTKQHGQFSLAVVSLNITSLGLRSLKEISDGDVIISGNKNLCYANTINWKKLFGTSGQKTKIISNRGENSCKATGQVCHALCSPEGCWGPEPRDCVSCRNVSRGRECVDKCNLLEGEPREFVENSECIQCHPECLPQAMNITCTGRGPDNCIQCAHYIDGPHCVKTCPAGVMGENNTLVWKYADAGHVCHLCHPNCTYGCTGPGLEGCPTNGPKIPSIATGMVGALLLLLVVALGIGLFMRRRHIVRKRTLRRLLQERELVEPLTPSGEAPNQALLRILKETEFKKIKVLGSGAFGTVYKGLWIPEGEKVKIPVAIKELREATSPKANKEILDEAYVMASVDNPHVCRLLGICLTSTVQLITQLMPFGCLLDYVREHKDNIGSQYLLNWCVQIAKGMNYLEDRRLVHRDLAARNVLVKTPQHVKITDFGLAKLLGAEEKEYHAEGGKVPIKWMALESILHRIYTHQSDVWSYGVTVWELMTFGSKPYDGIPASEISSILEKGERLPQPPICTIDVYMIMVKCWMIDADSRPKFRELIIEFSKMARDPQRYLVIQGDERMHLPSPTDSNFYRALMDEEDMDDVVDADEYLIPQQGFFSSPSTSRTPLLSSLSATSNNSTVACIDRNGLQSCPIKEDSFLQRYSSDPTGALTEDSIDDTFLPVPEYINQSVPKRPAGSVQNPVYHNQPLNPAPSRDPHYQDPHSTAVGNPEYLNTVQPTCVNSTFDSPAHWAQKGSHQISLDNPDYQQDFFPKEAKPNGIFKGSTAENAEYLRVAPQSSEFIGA

von Hippel-Lindau disease tumor suppressor/Son of sevenless homolog 1 (Homo sapiens, UniProt Q07889+P40337, G12S), sequence (P40337 whole entry, looked up, stated change not applied, one chain of several): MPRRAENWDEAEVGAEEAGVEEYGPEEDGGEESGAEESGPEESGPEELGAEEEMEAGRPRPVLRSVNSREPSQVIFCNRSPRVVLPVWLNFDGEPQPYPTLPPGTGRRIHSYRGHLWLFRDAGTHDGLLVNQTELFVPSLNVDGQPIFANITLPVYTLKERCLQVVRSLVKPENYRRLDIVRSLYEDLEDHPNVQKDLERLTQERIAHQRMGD
von Hippel-Lindau disease tumor suppressor/Son of sevenless homolog 1 (Homo sapiens, UniProt Q07889+P40337, G12C), sequence (P40337 whole entry, looked up, stated change not applied, one chain of several): as above
von Hippel-Lindau disease tumor suppressor/Son of sevenless homolog 1 (Homo sapiens, UniProt Q07889+P40337, G12R), sequence (P40337 whole entry, looked up, stated change not applied, one chain of several): as above
von Hippel-Lindau disease tumor suppressor/Son of sevenless homolog 1 (Homo sapiens, UniProt Q07889+P40337, G12D), sequence (P40337 whole entry, looked up, stated change not applied, one chain of several): as above
von Hippel-Lindau disease tumor suppressor/Son of sevenless homolog 1 (Homo sapiens, UniProt Q07889+P40337, G12V), sequence (P40337 whole entry, looked up, stated change not applied, one chain of several): as above
von Hippel-Lindau disease tumor suppressor/Son of sevenless homolog 1 (Homo sapiens, UniProt Q07889+P40337, G13D), sequence (P40337 whole entry, looked up, stated change not applied, one chain of several): as above
von Hippel-Lindau disease tumor suppressor/Son of sevenless homolog 1 (Homo sapiens, UniProt Q07889+P40337), sequence (P40337 whole entry, one chain of several): as the sequence (P40337 whole entry, looked up, stated change not applied, one chain of several) above

COc1cc2nc(C)nc(N[C@H](C)c3cc(N)cc(C(F)(F)F)c3)c2cc1O[C@H]1CCOC1
pIC50 (K562): 7.43

Cc1nc(N[C@H](C)c2cccc(C(F)F)c2F)c2cc3c(cc2n1)OC[C@H]1CN(C(=O)C2(C#N)CC2)CCN31
CLint scaled [1]: 37.2 mL/min/kg
pIC50 (MIA PaCa-2 [2]): 6.75
half-life [3]: 1.12 h
pIC50 [4]: 8.30
inhibition in vivo at 50 mg/kg (MIA PaCa-2 [5]): 71%

COc1cc2nc(C)nc(N[C@H](C)c3cc(N)cc(C(F)(F)F)c3)c2cc1C1CCN(C(=O)CCCCCC(=O)N[C@H](C(=O)N2C[C@H](O)C[C@H]2C(=O)N[C@@H](C)c2ccc(-c3scnc3C)cc2)C(C)(C)C)CC1
AUC [6]: 14100 ng·h/mL
DC50 [7]: 8.41 nM
inhibition in vivo at 10 mg/kg (NCI-H358 [8]): > 65%
DC50 [9]: 8.41 nM
DC50 [10]: 8.41 nM
DC50 [11]: 8.41 nM
pIC50 (NCI-H460): 8.16
inhibition in vivo at 10 mg/kg (NCI-H358 [12]): > 65%
half-life [13]: 9.69 h
DC50 [14]: 8.41 nM
pIC50 (CAL-62): 8.16
DC50 [15]: 8.41 nM
DC50 [16]: 15.7 nM

COC(=O)N1CCN2c3cc4c(N[C@H](C)c5cccc(C(F)F)c5F)nnc(C)c4cc3OC[C@H]2C1
CL/F [17]: 1.7 mL/min/kg
Vdss [18]: 0.33 L/kg
pKi [19]: 8.41
bioavailability [20]: 65.8%
inhibition in vivo at 20 mg/kg (MIA PaCa-2 [21]): 87%
inhibition in vivo at 20 mg/kg (MIA PaCa-2 [22]): 104%
half-life [23]: 6.4 h
pIC50 [24]: 8.96
pIC50 [4]: 8.80
pIC50 (MIA PaCa-2 [25]): 7.37
inhibition in vivo at 20 mg/kg (MIA PaCa-2 [26]): 42%
pIC50 [27]: < 5.00
